According to patent US12630525B2, “Triazinylmethylcycloalkylcarboxylic acid derivative, and pharmaceutical composition and use thereof” (SHANGHAI HAIYAN PHARMACEUTICAL TECHNOLOGY CO., LTD., priority 2021, dated 2026):
One block for each compound: values may come before it.

How the values were obtained:
hP2X2/3 = target: T1, hP2X2/3 (Homo sapiens, UniProt P56373+Q9UBL9); test: FLIPR assay, antagonistic activity against hP2X2/3 receptor (selectivity versus P2X3); format: cell-based; conditions: Multiple of P2X2/3 inhibitory activity and P2X3 inhibitory activity
T1 construct: host or cells: 1321N1
T1 sequence (P56373 1-397): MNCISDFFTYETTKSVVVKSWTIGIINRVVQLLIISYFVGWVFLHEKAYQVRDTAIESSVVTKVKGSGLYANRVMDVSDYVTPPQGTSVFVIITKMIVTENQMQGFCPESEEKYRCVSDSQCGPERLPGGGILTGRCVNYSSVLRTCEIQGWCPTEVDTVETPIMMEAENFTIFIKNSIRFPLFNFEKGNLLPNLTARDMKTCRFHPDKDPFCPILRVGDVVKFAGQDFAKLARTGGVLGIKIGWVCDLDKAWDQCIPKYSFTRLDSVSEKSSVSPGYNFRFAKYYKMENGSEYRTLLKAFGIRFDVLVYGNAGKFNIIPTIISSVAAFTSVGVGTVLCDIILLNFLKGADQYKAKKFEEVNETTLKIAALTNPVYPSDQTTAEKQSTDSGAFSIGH
T1 sequence (Q9UBL9 1-471): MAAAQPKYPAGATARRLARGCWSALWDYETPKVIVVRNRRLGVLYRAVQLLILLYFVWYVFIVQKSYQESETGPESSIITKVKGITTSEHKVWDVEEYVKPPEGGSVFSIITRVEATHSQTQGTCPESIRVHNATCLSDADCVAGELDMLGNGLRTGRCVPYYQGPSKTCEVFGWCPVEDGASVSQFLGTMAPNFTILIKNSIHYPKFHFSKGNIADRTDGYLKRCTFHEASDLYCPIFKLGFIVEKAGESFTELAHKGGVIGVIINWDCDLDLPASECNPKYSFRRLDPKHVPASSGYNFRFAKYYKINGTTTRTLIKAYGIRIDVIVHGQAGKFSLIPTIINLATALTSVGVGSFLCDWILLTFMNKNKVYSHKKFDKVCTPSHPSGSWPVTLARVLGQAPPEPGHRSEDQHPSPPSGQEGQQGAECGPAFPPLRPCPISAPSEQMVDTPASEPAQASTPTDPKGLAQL
Procedure: (§1) Test Example 1: Screening Compounds for Antagonistic Activity Against hP2X3/hP2X2/3 Receptors by FLIPR Assay
(§2) Cell preparation: Cells 1321N1/hP2X3 and cells 1321N1/hP2X2/3 (supplier: Chempartner) were […] with Versene digestive solution. After centrifugation, the cells were suspended using plate medium (DMEM+[…]) and counted. The cells were adjusted to 3×10^5 cells/mL. Each of the 384-well test plates was covered with 50 μL cells and cultured in a […] incubator at 37° C. for 16 hours to 24 hours.
(§3) Compound preparation: 1. Test sample: test compound at a concentration 180 times the required concentration (54 mM DMSO stock solution) was prepared using DMSO in a 384-well polypropylene microporous plate conforming to Echo standard, 500 nL of which was added to each well of a 384-well compound plate. Then 30 μL of test buffer (1*HIBSS+2 mM CaCl2+20 mM HEPES containing 1.26 mM Ca^2+) was added to each well. The 384-well compound plate was shook for 20 min to 40 min to mix well.
(§4) 2. Agonist: agonist ([…]) at a concentration 3 times the required concentration (the final concentration of 3000 nM is required for both hP2X3 and hP2X2/3 cells) was prepared with the test buffer. 45 μL of agonist was added to each well of the 384-well compound plate.
(§5) Dye incubation: The cell plate was taken out. The supernatant was removed. 30 uL of Dye (FLTPR® Calcium 4 Assay Kit, test buffer diluted) was added to each well. The cells were incubated for 1 hour.
(§6) FLTPR detection: 15 μL of compound was added to each well of the cell plate (FLTPR instrument sampling). After 15 minutes, 22.5 μL of agonist was added to each well. Fluorescence signals (excitation wavelength of 470 nm to 495 nm, emission wavelength of 515 nm to 575 nm) were detected.
(§7) Data processing: the difference between the peak value and the valley value of the signal was taken as the basic data. The highest concentration of positive drug was taken as 100% inhibition rate, and DMSO data was taken as 0% inhibition rate. The inhibition curves of compounds were fitted by log (inhibitor) vs. response—Variable slope on Graphpad prism 6 and the IC50 value was calculated.
(§8) Experimental homogeneity standard: each plate was subjected to ≥12 max values (DMSO action results) and ≥12 min values (highest concentration positive drug action results), and the Z value was calculated. If Z≥0.5, it is considered that the parallel wells are homogenous and the data is reliable. The calculation formula for Z value is as follows: Z=1−3*(SDmax+SDmin)/([…]).

hP2X3 = target: T2, hP2X3 (Homo sapiens, UniProt P56373); test: FLIPR assay, antagonistic activity against hP2X3 receptor; format: cell-based; conditions: 1321N1/hP2X3 cells, FLIPR Calcium 4, agonist 3000 nM; read-out: P2X3 (IC50/nM)
T2 construct: host or cells: 1321N1
T2 sequence (P56373 1-397): T1 sequence (P56373 1-397)
Procedure: as §1, §2, §3, §4, §5, §6, §7, §8

[1] = tested on: mechanical pain hypersensitivity in the rat CFA inflammatory pain model; test: Analgesic effect in rat CFA inflammatory pain model (von Frey paw withdrawal threshold); format: in vivo, SD rats
Procedure: Test Example 2: Evaluation of Analgesic Effect of Rat CFA Inflammatory Pain Model
Experimental animals: 50 male SD rats with a weight of 230 g to 260 g were used. All the experimental animals were purchased from Beijing Weitonglihua Experimental Animal Technology Co., LTD. After purchase, food and water were supplied in the way of free feeding. The feeding temperature was 20° C. to 25° C. The humidity was 40% to 70%. The animals were kept in separate cages and labeled using the tail labeling method.
An emulsion was obtained by mixing full Freund's adjuvant with saline in equal amount. A certain amount of the emulsion was injected subcutaneously into the rats. The animal was placed in a specially designed multi-unit metal mesh cage for pain detection and allowed to acclimate for 15 minutes. After the animal's grooming and investigation activities were completed and acclimated to the detection environment, a series of calibrated von Frey filaments (0.4, 0.6, 1.0, 1.4, 2, 4, 6, 8, 10, 15) were continuously applied to the back paw until a withdrawal reflex reaction occurred. The tester conducted blind test on the experiment, and the experimental results were expressed as “mean±standard deviation”. The data of each group are analyzed by GraphPad Prism 5 t test, with statistical difference at P<0.05.

[2] = 14-day toxicity test with toxicokinetics in SD rats; format: in vivo; conditions: for AUC / Cmax: SD, rat, blood, 100 mg/kg
Procedure: Test Example 3: Toxicity Test
There were 16 male and 16 female SD rats with SPF grade. Male SD rats weighed about 240 g and were 6 to 9 weeks old. Female SD rats weighed about 200 g and were 6 to 9 weeks old. All the experimental animals were purchased from Zhejiang Weitonglihua Experimental Animal Technology Co., LTD. After purchase, food and water were supplied in the way of free feeding. The feeding temperature was 20° C. to 26° C. The humidity was 40% to 70%. The number of air changes per hour was ≥15 times, and 100% fresh air was used. Automatic lighting and alternating light and dark every 12 hours were used. Male and female are kept in separate cages, with no more than 5 rats per cage.
Animals in each group were randomly divided according to gender and body weight, and were given the medicament once a day for 14 days according to the dose design in Table 7. Toxicokinetic blood sampling was performed in each dose group 30 min, 1 hr, 4 hr, 7 hr, 10 hr and 24 hr before and after the first and last administration, respectively, to investigate the toxicokinetic process in SD rats of each group.

[3] = Exposure at the effective dose in the rat pain model (basis for safety windows); conditions: in vivo
Source text: Calculation Basis for Safety Windows:

[4] = female, female SD rats, 100 mg/kg once a day for 14 days, last administration, read-out: AUC0t Last administration
[5] = female, female SD rats, 100 mg/kg once a day for 14 days, last administration, read-out: Cmax Last administration
[6] = female, female SD rats, 100 mg/kg once a day, first administration, read-out: AUC0t First administration
[7] = female, female SD rats, 100 mg/kg once a day, first administration, read-out: Cmax First administration
[8] = male, male SD rats, 100 mg/kg once a day for 14 days, last administration, read-out: AUC0t Last administration
[9] = male, male SD rats, 100 mg/kg once a day for 14 days, last administration, read-out: Cmax Last administration
[10] = male, male SD rats, 100 mg/kg once a day, first administration, read-out: AUC0t First administration
[11] = male, male SD rats, 100 mg/kg once a day, first administration, read-out: Cmax First administration

SMILES: O=C(O)[C@@H]1C[C@H]1Cn1c(=O)[nH]/c(=N\c2ccc(Oc3ccc(F)cn3)cc2)n(Cc2ccc(Cl)cc2)c1=O (racemic) [Compound H5, (±) trans-2-((3-(4-chlorobenzyl)-4-((4-((5-fluoropyridin-2-yl)oxy)phenyl)imino)-2,6-dioxo-1,3,5-triazin-1-yl)methyl)cyclopropan-1-carboxylic acid]
Selectivity multiple (hP2X2/3): 251

SMILES: C[C@@H](Cn1c(=O)nc(Nc2ccc(Oc3ccccn3)cc2)n(Cc2ccc(Cl)cc2)c1=O)C(=O)O [Compound D1, reference compound]
effective dose in the rat pain model ([1]; oral): 60 mg/kg
AUC [2, 4]: 2150 µg·h/mL
Cmax [2, 5]: 156 µg/mL
AUC [2, 6]: 2420 µg·h/mL
Cmax [2, 7]: 185 µg/mL
AUC [2, 8]: 2540 µg·h/mL
Cmax [2, 9]: 188 µg/mL
AUC [2, 10]: 2770 µg·h/mL
Cmax [2, 11]: 200 µg/mL
AUC ([3]; 60 mg/kg): ~1570 µg·h/mL
Cmax ([3]; 60 mg/kg): ~141 µg/mL

SMILES: O=C(O)[C@H]1C[C@@H]1Cn1c(=O)[nH]/c(=N\c2ccc(Oc3ccc(F)cn3)cc2)n(Cc2ccc(Cl)cc2)c1=O [Compound H5-P1, (1S,2S)-2-((3-(4-chlorobenzyl)-4-((4-((5-fluoropyridin-2-yl)oxy)phenyl)imino)-2,6-dioxo-1,3,5-triazin-1-yl)methyl)cyclopropan-1-carboxylic acid]
IC50 (hP2X3): 23 nM
Selectivity multiple (hP2X2/3): 590
analgesic effect 4 hours after administration ([1]; 60 mg/kg oral, 4 hours after administration): good analgesic effect
mechanical pain hypersensitivity (paw withdrawal threshold) ([1]; rat CFA model, oral, 30 and 60 mg/kg, FIG. 2 and FIG. 3): significantly inhibits
effective dose in the rat pain model ([1]; oral): 30 mg/kg
AUC [2, 4]: 1740 µg·h/mL
Cmax [2, 5]: 135 µg/mL
AUC [2, 6]: 1420 µg·h/mL
Cmax [2, 7]: 112 µg/mL
safety window (in words) ([2]; from the data in Table 8): high
AUC [2, 8]: 2390 µg·h/mL
Cmax [2, 9]: 162 µg/mL
AUC [2, 10]: 1460 µg·h/mL
Cmax [2, 11]: 101 µg/mL
AUC ([3]; 30 mg/kg): ~249 µg·h/mL
Cmax ([3]; 30 mg/kg): ~18.4 µg/mL

SMILES: O=C(O)[C@@H]1C[C@H]1Cn1c(=O)[nH]/c(=N\c2ccc(Oc3cccc(F)n3)cc2)n(Cc2ccc(Cl)cc2)c1=O (racemic) [Compound H7, (±) trans-2-((3-(4-chlorobenzyl)-4-((4-((6-fluoropyridin-2-yl)oxy)phenyl)imino)-2,6-dioxo-1,3,5-triazin-1-yl)methyl)cyclopropan-1-carboxylic acid]
IC50 (hP2X3): 73 nM
Selectivity multiple (hP2X2/3): 114

SMILES: O=C(O)[C@@H]1C[C@H]1Cn1c(=O)[nH]c(=Nc2ccc(Oc3ccc(F)cn3)cc2)n(Cc2ccc(Cl)cc2)c1=O [Compound H5-P2, (1R,2R)-2-((3-(4-chlorobenzyl)-4-((4-((5-fluoropyridin-2-yl)oxy)phenyl)imino)-2,6-dioxo-1,3,5-triazin-1-yl)methyl)cyclopropan-1-carboxylic acid]
IC50 (hP2X3): 106 nM
Selectivity multiple (hP2X2/3): 176

The next lines start with the values.

Selectivity multiple (hP2X2/3): 151
SMILES: O=C(O)[C@@H]1C[C@H]1Cn1c(=O)[nH]/c(=N\c2ccc(Oc3ccccn3)cc2)n(Cc2ccc(Cl)cc2)c1=O (racemic) [Compound H2, (±) trans-2-((3-(4-chlorobenzyl)-2,6-dioxo-4-(4-(pyridin-2-yloxy)phenylimino)-1,3,5-triazin-1-yl)methyl)cyclopropanecarboxylic acid]

IC50 (hP2X3): 148 nM
Selectivity multiple (hP2X2/3): 238
SMILES: O=C(O)[C@@H]1C[C@H]1Cn1c(=O)[nH]/c(=N\c2ccc(Oc3ncccc3F)cc2)n(Cc2ccc(Cl)cc2)c1=O (racemic) [Compound H8, (±) trans-2-((3-(4-chlorobenzyl)-4-((4-((3-fluoropyridin-2-yl)oxy)phenyl)imino)-2,6-dioxo-1,3,5-triazin-1-yl)methyl)cyclopropane-1-carboxylic acid]

Selectivity multiple (hP2X2/3): 27
SMILES: O=C(O)[C@@H]1C[C@@H]1Cn1c(=O)[nH]/c(=N\c2ccc(Oc3ccccn3)cc2)n(Cc2ccc(Cl)cc2)c1=O (racemic) [Compound H1, (±) cis-2-((3-(4-chlorobenzyl)-2,6-dioxo-4-(4-(pyridin-2-yloxy)phenylimino)-1,3,5-triazin-1-yl)methyl)cyclopropanecarboxylic acid]
